Assay: xn = mol fraction of the nth substance listed
Details: 101 kPa, Liquid

CCCCCCO [hexan-1-ol] + C1COCCO1
Details	mass density [kg/m3]	viscosity [mPa·s]
283.15 K, x2 = 0.1835	860.24	4.488
283.15 K, x2 = 0.2675	873.31	3.52
283.15 K, x2 = 0.385	896.72	2.785
283.15 K, x2 = 0.4933	916.23	2.324
283.15 K, x2 = 0.5935	938.47	2.007
283.15 K, x2 = 0.6866	957.86	1.815
283.15 K, x2 = 0.7731	981.11	1.691
283.15 K, x2 = 0.8795	1013.54	1.601
293.15 K, x2 = 0.1835	853.33	3.221
293.15 K, x2 = 0.2675	865.64	2.707
293.15 K, x2 = 0.385	889.2	2.184
293.15 K, x2 = 0.4933	903.63	1.845
293.15 K, x2 = 0.5935	929.82	1.626
293.15 K, x2 = 0.6866	951.11	1.554
293.15 K, x2 = 0.7731	973.8	1.395
293.15 K, x2 = 0.8795	1002.74	1.311
303.15 K, x2 = 0.1835	845.02	2.632
303.15 K, x2 = 0.2675	857.53	2.121
303.15 K, x2 = 0.385	879.87	1.748
303.15 K, x2 = 0.4933	898.36	1.506
303.15 K, x2 = 0.5935	920.31	1.339
303.15 K, x2 = 0.6866	941.43	1.238
303.15 K, x2 = 0.7731	963.84	1.173
303.15 K, x2 = 0.8795	990.21	–
313.15 K, x2 = 0.1835	836.88	2.285
313.15 K, x2 = 0.2675	849.44	1.705
313.15 K, x2 = 0.385	871.16	1.431
313.15 K, x2 = 0.4933	889.72	1.254
313.15 K, x2 = 0.5935	909.94	1.127
313.15 K, x2 = 0.6866	931.85	1.053
313.15 K, x2 = 0.7731	953.63	1.002
313.15 K, x2 = 0.8795	980.82	0.965
323.15 K, x2 = 0.1835	829.74	1.699
323.15 K, x2 = 0.2675	841.13	1.403
323.15 K, x2 = 0.385	864.56	1.196
323.15 K, x2 = 0.4933	880.42	1.056
323.15 K, x2 = 0.5935	900.9	0.964
323.15 K, x2 = 0.6866	921.84	0.907
323.15 K, x2 = 0.7731	943.38	0.869
323.15 K, x2 = 0.8795	971.57	0.843
333.15 K, x2 = 0.1835	821.17	1.289
333.15 K, x2 = 0.2675	833.54	1.16
333.15 K, x2 = 0.385	856.26	1.012
333.15 K, x2 = 0.4933	869.91	0.903
333.15 K, x2 = 0.5935	890.93	0.839
333.15 K, x2 = 0.6866	911.92	0.792
333.15 K, x2 = 0.7731	933.31	0.763
333.15 K, x2 = 0.8795	958.09	0.742
343.15 K, x2 = 0.1835	815.14	1.074
343.15 K, x2 = 0.2675	824.52	0.975
343.15 K, x2 = 0.385	843.77	0.863
343.15 K, x2 = 0.4933	862.93	0.786
343.15 K, x2 = 0.5935	881.04	0.732
343.15 K, x2 = 0.6866	905.05	0.748
343.15 K, x2 = 0.7731	923.91	0.678
343.15 K, x2 = 0.8795	947.05	0.662

Source: the NIST ThermoML archive (doi:10.1021/je700344f)
